{"source": "patent US20160120898A1", "about": "“METHODS AND COMPOSITIONS FOR THE DISRUPTION OF BIOFILMS AND TREATMENT OF DISORDERS CHARACTERIZED BY THE PRESENCE OF BIOFILMS” (BREATHE EASY LIMITED, priority 2013, published 2016)", "key": {"[1]": {"experiment": "Sputum pourability (viscosity) test", "set-up": "key to pourability: “0”=no change; “+++>” dissolved", "procedure": "The ability of sodium citrate solution to decrease the viscosity of sputum samples was examined as follows.\nThree different sputum samples were employed: sample 1 was of a runny consistency; sample 2 was of an intermediate consistency; and sample 3 was of a heavy consistency. 100 ul samples were measured and transferred to assay tubes in duplicate (except for sample 1 which was in short supply) and placed in a 37° C. preheated Thermomixer. 10 ul of saline (0.9% NaCl) was used as a negative control. 5 ul, 10 ul, 50 ul or 100 ul of 55 mM aqueous sodium citrate solution was added per tube and mixed (400 rpm). Each tube was checked for pourability, or viscosity, at 30 sec, 90 sec and 150 sec by observing the movement of the sputum sample along the wall of the tube. The pourability of sample 3 was also checked at 5 minutes. The pourability was graded as follows: “0”=no change to “+++>” dissolved. The results of the study are shown below in Table 2 for samples 1-3, and in FIG. 1."}, "[2]": {"experiment": "Safety and toxicity of nebulized sodium citrate in healthy volunteers (FEV1, FVC)", "format": "in vivo, human", "set-up": "FEV1 / FVC: unit not given here", "conditions": "for FEV1 / FVC: 5 minutes after treatment", "procedure": "The safety and toxicity of aqueous sodium citrate solution was examined as follows. Treatment solutions were prepared by diluting 0 mM, 11 mM and 22 mM sodium citrate in 2 ml of water. The solutions were nebulized and administered to three healthy volunteers in successive treatments, with ascending sodium citrate dosage volumes and a 5 min break between each treatment. The forced expiratory volume in 1 sec (FEV1) and forced vital capacity (FVC) were recorded 5 minutes after each treatment."}, "[3]": {"conditions": "average found with alpha dornase; cited from earlier work"}}}
{"molecule": "O=C([O-])CC(O)(CC(=O)[O-])C(=O)[O-].[Na+].[Na+].[Na+]", "note": "[sodium citrate]", "values": [{"measurement": "pourability", "setting": "[1]; 5 ul added to 100 ul sputum, sample 1 (runny), 30 sec", "value": "+++>"}, {"measurement": "pourability", "setting": "[1]; 5 ul added to 100 ul sputum, sample 1 (runny), 90 sec", "value": "+++>"}, {"measurement": "pourability", "setting": "[1]; 5 ul added to 100 ul sputum, sample 1 (runny), 150 sec", "value": "+++>"}, {"measurement": "pourability", "setting": "[1]; 5 ul added to 100 ul sputum, sample 1 (runny), time 0", "value": "+++>"}, {"measurement": "pourability", "setting": "[1]; 5 ul added to 100 ul sputum, sample 2 (intermediate), 30 sec", "value": 0}, {"measurement": "pourability", "setting": "[1]; 5 ul added to 100 ul sputum, sample 2 (intermediate), time 0", "value": 0}, {"measurement": "pourability", "setting": "[1]; 5 ul added to 100 ul sputum, sample 3 (heavy), 30 sec", "value": 0}, {"measurement": "pourability", "setting": "[1]; 5 ul added to 100 ul sputum, sample 3 (heavy), 5 min", "value": "+>"}, {"measurement": "pourability", "setting": "[1]; 5 ul added to 100 ul sputum, sample 3 (heavy), time 0", "value": 0}, {"measurement": "pourability", "setting": "[1]; 10 ul added to 100 ul sputum, sample 1 (runny), 30 sec", "value": "+++>"}, {"measurement": "pourability", "setting": "[1]; 10 ul added to 100 ul sputum, sample 1 (runny), 90 sec", "value": "+++>"}, {"measurement": "pourability", "setting": "[1]; 10 ul added to 100 ul sputum, sample 1 (runny), 150 sec", "value": "+++>"}, {"measurement": "pourability", "setting": "[1]; 10 ul added to 100 ul sputum, sample 1 (runny), time 0", "value": "+++>"}, {"measurement": "pourability", "setting": "[1]; 10 ul added to 100 ul sputum, sample 2 (intermediate), 30 sec", "value": 0}, {"measurement": "pourability", "setting": "[1]; 10 ul added to 100 ul sputum, sample 2 (intermediate), 150 sec", "value": "+>"}, {"measurement": "pourability", "setting": "[1]; 10 ul added to 100 ul sputum, sample 2 (intermediate), time 0", "value": 0}, {"measurement": "pourability", "setting": "[1]; 10 ul added to 100 ul sputum, sample 3 (heavy), 30 sec", "value": 0}, {"measurement": "pourability", "setting": "[1]; 10 ul added to 100 ul sputum, sample 3 (heavy), 5 min", "value": "++>"}, {"measurement": "pourability", "setting": "[1]; 10 ul added to 100 ul sputum, sample 3 (heavy), time 0", "value": 0}, {"measurement": "pourability", "setting": "[1]; 50 ul added to 100 ul sputum, sample 1 (runny), 30 sec", "value": "+++>"}, {"measurement": "pourability", "setting": "[1]; 50 ul added to 100 ul sputum, sample 1 (runny), 90 sec", "value": "+++>"}, {"measurement": "pourability", "setting": "[1]; 50 ul added to 100 ul sputum, sample 1 (runny), 150 sec", "value": "+++>"}, {"measurement": "pourability", "setting": "[1]; 50 ul added to 100 ul sputum, sample 1 (runny), time 0", "value": "+++>"}, {"measurement": "pourability", "setting": "[1]; 50 ul added to 100 ul sputum, sample 2 (intermediate), 150 sec", "value": "++>"}, {"measurement": "pourability", "setting": "[1]; 50 ul added to 100 ul sputum, sample 2 (intermediate), time 0", "value": 0}, {"measurement": "pourability", "setting": "[1]; 50 ul added to 100 ul sputum, sample 3 (heavy), 90 sec", "value": "+>"}, {"measurement": "pourability", "setting": "[1]; 50 ul added to 100 ul sputum, sample 3 (heavy), 150 sec", "value": "+>"}, {"measurement": "pourability", "setting": "[1]; 50 ul added to 100 ul sputum, sample 3 (heavy), 5 min", "value": "+++>"}, {"measurement": "pourability", "setting": "[1]; 50 ul added to 100 ul sputum, sample 3 (heavy), time 0", "value": 0}, {"measurement": "pourability", "setting": "[1]; 100 ul added to 100 ul sputum, sample 2 (intermediate), 90 sec", "value": "++>"}, {"measurement": "pourability", "setting": "[1]; 100 ul added to 100 ul sputum, sample 2 (intermediate), 150 sec", "value": "+++>"}, {"measurement": "pourability", "setting": "[1]; 100 ul added to 100 ul sputum, sample 2 (intermediate), time 0", "value": 0}, {"measurement": "pourability", "setting": "[1]; 100 ul added to 100 ul sputum, sample 3 (heavy), 5 min", "value": "+++>"}, {"measurement": "pourability", "setting": "[1]; 100 ul added to 100 ul sputum, sample 3 (heavy), time 0", "value": 0}, {"measurement": "time of maximal effectiveness in reducing sputum viscosity", "setting": "[1]; following incubation", "value": 5, "unit": "min"}, {"measurement": "FEV1", "setting": "[2]; Volunteer 1, 11 mM nebulized", "value": 3.90}, {"measurement": "FVC", "setting": "[2]; Volunteer 1, 11 mM nebulized", "value": 4.66}, {"measurement": "FEV1", "setting": "[2]; Volunteer 1, 22 mM nebulized", "value": 3.96}, {"measurement": "FVC", "setting": "[2]; Volunteer 1, 22 mM nebulized", "value": 4.82}, {"measurement": "FEV1", "setting": "[2]; Volunteer 2, 11 mM nebulized", "value": 2.39}, {"measurement": "FVC", "setting": "[2]; Volunteer 2, 11 mM nebulized", "value": 3.48}, {"measurement": "FEV1", "setting": "[2]; Volunteer 2, 22 mM nebulized", "value": 2.28}, {"measurement": "FVC", "setting": "[2]; Volunteer 2, 22 mM nebulized", "value": 3.40}, {"measurement": "FEV1", "setting": "[2]; Volunteer 3, 22 mM nebulized", "value": 2.79}, {"measurement": "FVC", "setting": "[2]; Volunteer 3, 22 mM nebulized", "value": 2.84}, {"measurement": "irritation or other negative side effects", "setting": "[2]; nebulization in three healthy volunteers", "value": "did not result in any irritation or other negative side effects"}]}
{"molecule": "alpha dornase: Pulmozyme® (dornase alfa or rhDNase), approved for treatment of CF (protein, UniProt P24855 23-282, looked up, dornase alfa, Pulmozyme® (dornase alfa or rhDNase), approved for treatment of CF) Deoxyribonuclease-1: LKIAAFNIQTFGETKMSNATLVSYIVQILSRYDIALVQEVRDSHLTAVGKLLDNLNQDAPDTYHYVVSEPLGRNSYKERYLFVYRPDQVSAVDSYYYDDGCEPCGNDTFNREPAIVRFFSRFTEVREFAIVPLHAAPGDAVAEIDALYDVYLDVQEKWGLEDVMLMGDFNAGCSYVRPSQWSSIRLWTSPTFQWLIPDSADTTATPTHCAYDRIVVAGMLLRGAVVPDSALPFNFQAAYGLSDQLAQAISDHYPVEVMLK", "values": [{"measurement": "improvement in lung function (FEV1), average", "setting": "[3]", "value": 9, "unit": "%"}]}
